Data published in patent US7662825B2, “N-pyrazinyl-phenylsulphonamides and their use in the treatment of chemokine mediated diseases” (AstraZeneca AB, priority 2002, dated 2010).

Compound | melting point
COc1ccc(COc2nc(Cl)cnc2NS(=O)(=O)c2cccc(Cl)c2Cl)cc1 [Example 97, 2,3-Dichloro-N-[5-chloro-3-(4-methoxyphenylmethoxy)-2-pyrazinyl]benzenesulphonamide] | 163 to 164 °C
COc1nc(Br)c(C)nc1NS(=O)(=O)c1cccc(Cl)c1Cl [Example 118, 2,3-Dichloro-N-[5-bromo-3-methoxy-6-methyl-2-pyrazinyl)benzenesulphonamide] | 146 to 148 °C
COCCOc1nc(OC)c(NS(=O)(=O)c2cccc(Cl)c2Cl)nc1Cl [Example 70, 2,3-Dichloro-N-[6-chloro-3-methoxy-5-(2-methoxyethoxy)-2-pyrazinyl]benzenesulphonamide] | 193 to 194 °C
COc1nc(Cl)c(Cl)nc1NS(=O)(=O)c1cccc(Cl)c1 [Example 61, 3-Chloro-N-(5,6-dichloro-3-methoxy-2-pyrazinyl)benzenesulphonamide] | 171 to 172 °C
COC(=O)CCSc1cnc(NS(=O)(=O)c2cccc(Cl)c2Cl)c(OC)n1 [Example 117] | 146 to 148 °C
COc1nc(C)cnc1NS(=O)(=O)c1cccc(Cl)c1 [Example 45, 3-Chloro-N-(3-methoxy-5-methyl-2-pyrazinyl)benezenesulphonamide] | 123 to 125 °C
COc1nc(Cl)cnc1NS(=O)(=O)c1cccc(Cl)c1F [Example 122, 3-Chloro-N-(5-chloro-3-methoxy-2-pyrazinyl)-2-fluorobenzenesulphonamide] | 156 to 157 °C
COc1nc(CO)c(Cl)nc1NS(=O)(=O)c1cccc(Cl)c1Cl [Example 127, 2,3-Dichloro-N-[6-chloro-5-(hydroxymethyl)-3-methoxypyrazin-2-yl]benzenesulphonamide] | 145 to 147 °C
COC(=O)c1cnc(NS(=O)(=O)c2cccc(Cl)c2Cl)c(OCc2cccnc2)n1 [Example 134, 5-(2,3-Dichlorobenzenesulphonylamino)-6-(3-pyridinylmethoxy)pyrazine-2-carboxylic acid, methyl ester] | 209 to 210 °C
COc1nc(CO)cnc1NS(=O)(=O)c1cccc(Cl)c1Cl [Example 138] | 160 to 161 °C
Cc1cnc(NS(=O)(=O)c2cccc(Cl)c2Cl)c(OCc2ccncc2)n1 [Example 25, 2,3-Dichloro-N-[5-methyl-3-(4-pyridinylmethoxy)-2-pyrazinyl]benzenesulphonamide] | 183 to 184 °C
COC(=O)c1nccnc1NS(=O)(=O)c1cccc(Cl)c1Cl [Example 124, 3-{[(2,3-Dichlorophenyl)sulphonyl]amino}pyrazine-2-carboxylic acid, methyl ester] | 177 to 178 °C
O=S(=O)(Nc1ncc(Cl)nc1OCc1ccc(CO)cc1)c1cccc(Cl)c1Cl [Example 109, 2,3-Dichloro-N-[5-chloro-3-(4-hydroxymethylphenylmethoxy)-2-pyrazinyl]benzenesulphonamide] | 177 to 178 °C
O=S(=O)(Nc1ncc(Cl)nc1OCc1ccccn1)c1cccc(Cl)c1Cl [Example 89, 2,3-dichloro-N-[5-chloro-3-(2-pyridinylmethoxy)-2-pyrazinyl]benzenesulphonamide] | 147 to 148 °C
O=S(=O)(Nc1nccnc1OCc1cccnc1)c1cccc(Cl)c1Cl [Example 29, 2,3-Dichloro-N-[3-(3-pyridinylmethoxy)-2-pyrazinyl]benzenesulphonamide] | 138 to 139 °C
COc1nc(SCc2ncon2)cnc1NS(=O)(=O)c1cccc(Cl)c1Cl [Example 172, 2,3-Dichloro-N-[3-methoxy-5-([1,2,4]-3-oxadiazolylmethylsulphanyl)-2-pyrazinyl]benzenesulphonamide] | 154 to 156 °C
COCc1nc(OC)c(NS(=O)(=O)c2cccc(Cl)c2Cl)nc1Cl [Example 129, 2,3-Dichloro-N-[6-chloro-3-methoxy-5-(methoxymethyl)-2-pyrazinyl]benzenesulphonamide] | 193 to 196 °C
Cc1cnc(NS(=O)(=O)c2cccc(Cl)c2Cl)c(OCc2cccnn2)n1 [Example 27, 2,3-Dichloro-N-[5-methyl-3-(3-pyridazinylmethoxy)-2-pyrazinyl]benzenesulphonamide] | 119 to 124 °C
O=S(=O)(Nc1nc(Cl)cnc1OCc1cccnc1)c1cccc(Cl)c1Cl [Example 99, 2,3-Dichloro-N-[6-chloro-3-(3-pyridinylmethoxy)-2-pyrazinyl]benzenesulphonamide] | 203 to 204 °C
COc1ccc(COc2nccnc2NS(=O)(=O)c2cccc(Cl)c2Cl)cn1 [Example 128, 2,3-Dichloro-N-{3-[(6-methoxy-3-pyridinyl)methoxy]-2-pyrazinyl}benzenesulphonamide] | 187 to 188 °C
COc1ncc(Cl)nc1NS(=O)(=O)c1ccccc1Cl [Example 38, 2-Chloro-N-(6-chloro-3-methoxy-2-pyrazinyl)benezenesulphonamide] | 172 to 173 °C

Compound | melting point
COc1nc(-c2ccc(F)cc2F)cnc1NS(=O)(=O)c1cccc(Cl)c1Cl [Example 81, 2,3-Dichloro-N-[5-(2,4-difluorophenyl)-3-methoxy-2-pyrazinyl]benzenesulphonamide] | 169 to 170 °C
COC(=O)c1cnc(OC)c(NS(=O)(=O)c2cccc(Cl)c2Cl)n1 [Example 201, 6-(2,3-Dichlorophenylsulphonylamino)-5-methoxy-2-pyrazinecarboxylic acid, methyl ester] | 90 to 92 °C
CNc1nc(OC)c(NS(=O)(=O)c2cccc(Cl)c2Cl)nc1Cl [Example 79, 2,3-Dichloro-N-(6-chloro-3-methoxy-5-methylamino-2-pyrazinyl)benzenesulphonamide] | 185 to 186 °C
COC(=O)c1cccc(COc2nc(Cl)cnc2NS(=O)(=O)c2cccc(Cl)c2Cl)c1 [Example 104, 3-[6-Chloro-3-(2,3-dichlorobenzenesulphonylamino)-2-pyrazinyloxymethyl]benzoic acid methyl ester] | 175 to 176 °C
C=CCOc1cnc(NS(=O)(=O)c2cccc(Cl)c2Cl)c(OC)n1 [Example 139, N-(5-Allyloxy-3-methoxy-2-pyrazinyl)-2,3-dichlorobenzenesulphonamide] | 120 to 121 °C
Nc1nc(COc2nc(Cl)cnc2NS(=O)(=O)c2cccc(Cl)c2Cl)co1 [Example 212, N-[3-[(2-amino-4-oxazolyl)methoxy]-5-chloro-2-pyrazinyl]-2,3-dichlorobenzenesulphonamide] | 137 °C
COc1nc(CO)c(C)nc1NS(=O)(=O)c1cccc(Cl)c1Cl [Example 120, 2,3-Dichloro-N-[5-(hydroxymethyl)-3-methoxy-6-methyl-2-pyrazinyl)benzenesulphonamide] | 175 to 177 °C
COc1nc(N2CCOCC2)c(Cl)nc1NS(=O)(=O)c1cccc(Cl)c1Cl [Example 67, 2,3-Dichloro-N-[6-chloro-3-methoxy-5-(4-morpholinyl)-2-pyrazinyl]benzenesulphonamide] | 150 to 151 °C
COc1nccnc1NS(=O)(=O)c1cccc(Cl)c1Cl [Example 30, 2,3-Dichloro-N-(3-methoxy-2-pyrazinyl)benzenesulphonamide] | 183 to 184 °C
COc1nc(C)cnc1NS(=O)(=O)c1ccc(Cl)cc1Cl [Example 47, 2,4-Dichloro-N-(3-methoxy-5-methyl-2-pyrazinyl)benezenesulphonamide] | 135 to 136 °C
Cc1cnc(NS(=O)(=O)c2cccc(Cl)c2Cl)c(OCc2ncccc2C)n1 [Example 26, 2,3-Dichloro-N-[5-methyl-3-(3-methyl-2-pyridinylmethoxy)-2-pyrazinyl]benzenesulphonamide] | 137 to 138 °C
COC(=O)c1nc(OC)c(NS(=O)(=O)c2cccc(Cl)c2Cl)nc1Cl [Example 126, 3-Chloro-5-{[(2,3-dichlorophenyl)sulphonyl]amino}-6-methoxypyrazine-2-carboxylic acid, methyl ester] | 200 to 201 °C
CNCc1ccc(COc2nccnc2NS(=O)(=O)c2cccc(Cl)c2Cl)o1 [Example 183, 2,3-Dichloro-N-[3-(5-methylaminomethyl-2-furanylmethoxy)-2-pyrazinyl]benzenesulphonamide] | 198 to 199 °C
COc1nc(SCCN)c(Cl)nc1NS(=O)(=O)c1cccc(Cl)c1Cl [Example 116, N-{5-[(2-Aminoethyl)thio]-6-chloro-3-methoxy-2-pyrazinyl}-2,3-dichlorobenzenesulfonamide] | 185 to 190 °C
COc1ncc(CO)nc1NS(=O)(=O)c1cccc(Cl)c1Cl [Example 202, 2,3-Dichloro-N-[6-(hydroxymethyl)-3-methoxy-2-pyrazinyl]benzenesulphonamide] | 153 to 155 °C
O=S(=O)(Nc1ncc(Cl)nc1OCc1ccc(CNCCO)cc1)c1cccc(Cl)c1Cl [Example 110, 2,3-Dichloro-N-[5-chloro-3-{4-([2-hydroxyethylamino]methyl)phenylmethoxy}-2-pyrazinyl]benzenesulphonamide] | 202 to 205 °C
COc1nc(Cn2cncn2)cnc1NS(=O)(=O)c1cccc(Cl)c1Cl [Example 195, 2,3-Dichloro-N-[3-methoxy-5-(1H-1,2,4-triazol-1-ylmethyl)-2-pyrazinyl]benzenesulphonamide] | 95 to 105 °C
O=S(=O)(Nc1ncc(Cl)nc1OCc1cccc(CO)c1)c1cccc(Cl)c1Cl [Example 106, 2,3-Dichloro-N-[5-chloro-3-(3-hydroxymethylphenylmethoxy)-2-pyrazinyl]benzenesulphonamide] | 162 to 163 °C
COc1nc(NC(=O)CO)cnc1NS(=O)(=O)c1cccc(Cl)c1Cl [Example 200, N-[5-(2,3-Dichlorophenylsulphonylamino)-6-methoxy-2-pyrazinyl]-2-hydroxyacetamide] | 153 to 155 °C
Cc1ncccc1COc1nc(Cl)cnc1NS(=O)(=O)c1cccc(Cl)c1Cl [Example 92, 2,3-Dichloro-N-[5-chloro-3-(2-methyl-3-pyridinylmethoxy)-2-pyrazinyl]benzenesulphonamide] | 214 to 216 °C (dec.)
COc1nc(Br)cnc1NS(=O)(=O)c1ccccc1OC(F)(F)F [Example 49, N-(5-Bromo-3-methoxy-2-pyrazinyl)-2-trifluoromethoxybenezenesulphonamide] | 156 to 157 °C
